Test results taken from BindingDB's records for doi:10.1111/j.1476-5381.1994.tb14064.x (Glaxo Group Research, 1994).

Key:
Pro-neuropeptide Y = Pro-neuropeptide Y (Rattus norvegicus, UniProt P07808)
[1] = target: Muscarinic acetylcholine receptor M1 (Rattus norvegicus, UniProt P08482)
[2] = target: Kappa-type opioid receptor (Rattus norvegicus, UniProt P34975)
D(2) dopamine receptor = D(2) dopamine receptor (Rattus norvegicus, UniProt P61169)
[3] = target: Alpha-2C adrenergic receptor (Rattus norvegicus, UniProt P22086)
[4] = target: Gastrin/cholecystokinin type B receptor (Rattus norvegicus, UniProt P30553)
[5] = target: Bombesin receptor subtype-3 (Rattus norvegicus, UniProt Q8K418)
[6] = target: Beta-2 adrenergic receptor (Cavia porcellus, UniProt Q8K4Z4)
Beta-2 adrenergic receptor, sequence (Q8K4Z4 whole entry): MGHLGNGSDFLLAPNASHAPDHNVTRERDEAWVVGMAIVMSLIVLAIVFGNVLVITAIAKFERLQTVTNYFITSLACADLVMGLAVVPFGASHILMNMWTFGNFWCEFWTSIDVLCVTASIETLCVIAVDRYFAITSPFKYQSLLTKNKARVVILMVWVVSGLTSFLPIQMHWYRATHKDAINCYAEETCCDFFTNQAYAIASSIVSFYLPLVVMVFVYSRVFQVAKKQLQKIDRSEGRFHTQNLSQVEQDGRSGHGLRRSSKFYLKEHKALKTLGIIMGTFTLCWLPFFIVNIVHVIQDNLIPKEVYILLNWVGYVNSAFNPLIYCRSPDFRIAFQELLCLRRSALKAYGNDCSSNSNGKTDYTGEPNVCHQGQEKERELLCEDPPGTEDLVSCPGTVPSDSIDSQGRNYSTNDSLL

Histamine H1 receptor = Histamine H1 receptor (Rattus norvegicus, UniProt P31390)
Substance-P receptor = Substance-P receptor (Rattus norvegicus, UniProt P14600)
Hrh3 protein = Hrh3 protein (Rattus norvegicus, UniProt Q5PPG3)
Hrh3 protein, sequence (Q5PPG3 whole entry): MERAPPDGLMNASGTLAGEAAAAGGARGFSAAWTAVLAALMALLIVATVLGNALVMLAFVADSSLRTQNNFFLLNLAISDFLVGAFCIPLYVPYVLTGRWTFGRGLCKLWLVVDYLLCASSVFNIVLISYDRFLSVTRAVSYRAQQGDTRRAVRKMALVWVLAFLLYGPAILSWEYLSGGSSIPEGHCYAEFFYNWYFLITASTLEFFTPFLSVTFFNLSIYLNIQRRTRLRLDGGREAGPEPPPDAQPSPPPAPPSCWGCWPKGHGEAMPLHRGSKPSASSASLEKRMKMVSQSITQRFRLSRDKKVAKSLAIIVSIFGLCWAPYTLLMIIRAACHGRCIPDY

[7] = target: 5-hydroxytryptamine receptor 3A (Rattus norvegicus, UniProt P35563)
Vasopressin V2 receptor = Vasopressin V2 receptor (Rattus norvegicus, UniProt Q00788)
Adenosine receptor A2a = Adenosine receptor A2a (Rattus norvegicus, UniProt P30543)
Mu-type opioid receptor = Mu-type opioid receptor (Rattus norvegicus, UniProt P33535)
Adenosine receptor A1 = Adenosine receptor A1 (Rattus norvegicus, UniProt P25099)
[8] = target: Endothelin-converting enzyme 1 (Rattus norvegicus, UniProt P42893)
[9] = target: Calcitonin gene-related peptide 1 (Rattus norvegicus, UniProt P01256)
[10] = target: Gamma-aminobutyric acid (GABA) B receptor 1 (Rattus norvegicus, UniProt Q6MFX8)
Gamma-aminobutyric acid (GABA) B receptor 1, sequence (Q6MFX8 whole entry): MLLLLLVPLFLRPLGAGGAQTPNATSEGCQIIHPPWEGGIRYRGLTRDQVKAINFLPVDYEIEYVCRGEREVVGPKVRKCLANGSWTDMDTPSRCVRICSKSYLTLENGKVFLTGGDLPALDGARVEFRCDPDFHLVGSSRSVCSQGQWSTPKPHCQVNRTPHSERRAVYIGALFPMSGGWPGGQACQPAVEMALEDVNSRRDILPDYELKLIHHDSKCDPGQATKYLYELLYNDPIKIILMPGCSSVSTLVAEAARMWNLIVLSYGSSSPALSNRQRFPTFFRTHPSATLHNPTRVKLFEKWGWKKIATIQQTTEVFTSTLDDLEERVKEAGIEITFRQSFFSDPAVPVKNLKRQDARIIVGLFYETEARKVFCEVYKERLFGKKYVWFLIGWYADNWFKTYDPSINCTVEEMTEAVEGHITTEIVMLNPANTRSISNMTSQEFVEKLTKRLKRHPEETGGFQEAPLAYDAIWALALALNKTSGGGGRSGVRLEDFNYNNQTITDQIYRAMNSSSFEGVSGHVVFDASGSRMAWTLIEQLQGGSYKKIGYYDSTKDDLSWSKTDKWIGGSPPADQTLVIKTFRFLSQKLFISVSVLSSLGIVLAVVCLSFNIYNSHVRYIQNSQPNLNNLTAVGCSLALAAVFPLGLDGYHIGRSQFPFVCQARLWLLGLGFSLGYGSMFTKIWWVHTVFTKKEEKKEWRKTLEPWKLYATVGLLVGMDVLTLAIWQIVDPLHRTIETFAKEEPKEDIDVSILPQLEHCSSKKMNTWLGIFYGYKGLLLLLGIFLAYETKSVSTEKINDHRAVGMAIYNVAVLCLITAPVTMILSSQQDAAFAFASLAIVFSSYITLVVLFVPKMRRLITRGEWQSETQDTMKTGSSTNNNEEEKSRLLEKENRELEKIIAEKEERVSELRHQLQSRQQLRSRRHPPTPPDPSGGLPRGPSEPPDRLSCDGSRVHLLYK

D(1A) dopamine receptor = D(1A) dopamine receptor (Rattus norvegicus, UniProt P18901)
Substance-K receptor = Substance-K receptor (Rattus norvegicus, UniProt P16610)
Substance-K receptor, sequence (P16610 whole entry): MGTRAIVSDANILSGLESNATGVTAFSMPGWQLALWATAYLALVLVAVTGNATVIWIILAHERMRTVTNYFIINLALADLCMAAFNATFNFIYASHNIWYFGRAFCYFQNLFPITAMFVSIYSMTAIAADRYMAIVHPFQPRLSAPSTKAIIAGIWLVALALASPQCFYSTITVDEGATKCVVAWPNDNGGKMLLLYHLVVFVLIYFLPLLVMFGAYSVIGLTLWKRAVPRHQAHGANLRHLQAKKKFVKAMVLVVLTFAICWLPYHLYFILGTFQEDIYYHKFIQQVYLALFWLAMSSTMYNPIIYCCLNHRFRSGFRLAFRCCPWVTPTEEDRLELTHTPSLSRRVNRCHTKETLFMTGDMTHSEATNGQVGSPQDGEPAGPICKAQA

[11] = target: Glycine amidinotransferase, mitochondrial (Rattus norvegicus, UniProt P50442)
Glycine amidinotransferase, mitochondrial, sequence (P50442 whole entry): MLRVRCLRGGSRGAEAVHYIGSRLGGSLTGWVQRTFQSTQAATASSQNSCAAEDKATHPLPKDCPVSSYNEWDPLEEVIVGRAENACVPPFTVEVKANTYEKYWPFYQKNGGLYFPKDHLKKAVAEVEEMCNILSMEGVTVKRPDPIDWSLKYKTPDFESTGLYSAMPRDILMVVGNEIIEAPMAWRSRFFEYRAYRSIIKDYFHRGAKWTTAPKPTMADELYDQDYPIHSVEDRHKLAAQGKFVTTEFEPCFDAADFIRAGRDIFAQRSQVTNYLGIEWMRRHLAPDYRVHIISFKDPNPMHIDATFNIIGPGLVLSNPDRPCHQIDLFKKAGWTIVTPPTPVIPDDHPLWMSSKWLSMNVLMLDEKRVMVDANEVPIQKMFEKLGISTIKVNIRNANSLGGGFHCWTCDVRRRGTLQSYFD

Neuromedin-K receptor = Neuromedin-K receptor (Mus musculus, UniProt P47937)
Neuromedin-K receptor, sequence (P47937 whole entry): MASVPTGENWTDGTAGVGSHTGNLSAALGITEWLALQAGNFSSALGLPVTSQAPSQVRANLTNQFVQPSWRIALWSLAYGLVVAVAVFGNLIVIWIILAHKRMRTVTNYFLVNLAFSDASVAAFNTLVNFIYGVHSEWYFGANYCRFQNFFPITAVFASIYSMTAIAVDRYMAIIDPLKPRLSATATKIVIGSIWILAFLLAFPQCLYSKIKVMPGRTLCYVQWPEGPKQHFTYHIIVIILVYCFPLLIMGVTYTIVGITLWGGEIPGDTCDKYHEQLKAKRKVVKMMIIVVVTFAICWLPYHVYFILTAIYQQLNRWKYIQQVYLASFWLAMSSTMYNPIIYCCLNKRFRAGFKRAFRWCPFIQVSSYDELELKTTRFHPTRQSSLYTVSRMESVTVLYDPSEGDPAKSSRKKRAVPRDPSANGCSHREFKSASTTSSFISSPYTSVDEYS

[12] = target: Gamma-aminobutyric acid receptor subunit alpha-1 (Rattus norvegicus, UniProt P62813)
Gamma-aminobutyric acid receptor subunit alpha-1, sequence (P62813 whole entry): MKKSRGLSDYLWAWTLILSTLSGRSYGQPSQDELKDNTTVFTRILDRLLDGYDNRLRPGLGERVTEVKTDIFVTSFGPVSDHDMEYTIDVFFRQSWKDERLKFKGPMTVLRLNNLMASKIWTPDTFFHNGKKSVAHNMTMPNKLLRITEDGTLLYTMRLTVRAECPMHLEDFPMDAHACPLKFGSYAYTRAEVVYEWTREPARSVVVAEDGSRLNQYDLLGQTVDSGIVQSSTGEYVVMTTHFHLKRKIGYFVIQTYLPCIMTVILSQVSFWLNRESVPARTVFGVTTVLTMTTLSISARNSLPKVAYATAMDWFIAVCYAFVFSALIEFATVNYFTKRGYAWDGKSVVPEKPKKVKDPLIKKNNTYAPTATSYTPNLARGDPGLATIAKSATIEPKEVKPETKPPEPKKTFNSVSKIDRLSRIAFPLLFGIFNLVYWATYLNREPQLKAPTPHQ

[13] = target: Muscarinic acetylcholine receptor M2 (Rattus norvegicus, UniProt P10980)
Muscarinic acetylcholine receptor M2, sequence (P10980 whole entry): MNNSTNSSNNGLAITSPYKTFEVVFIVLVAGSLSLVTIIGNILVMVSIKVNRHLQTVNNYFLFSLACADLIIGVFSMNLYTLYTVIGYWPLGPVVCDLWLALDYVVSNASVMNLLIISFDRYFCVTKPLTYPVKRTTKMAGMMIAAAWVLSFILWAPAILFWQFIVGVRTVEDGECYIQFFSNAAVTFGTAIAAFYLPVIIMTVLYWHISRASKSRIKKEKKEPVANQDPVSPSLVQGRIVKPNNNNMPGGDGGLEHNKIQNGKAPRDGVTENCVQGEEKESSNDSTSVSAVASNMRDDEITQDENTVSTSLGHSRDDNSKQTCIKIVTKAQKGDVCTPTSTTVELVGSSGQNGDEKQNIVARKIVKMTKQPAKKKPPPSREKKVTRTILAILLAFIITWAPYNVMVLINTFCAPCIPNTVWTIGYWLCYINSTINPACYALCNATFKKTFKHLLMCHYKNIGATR

Galanin peptides = Galanin peptides (Rattus norvegicus, UniProt P10683)
Somatostatin = Somatostatin (Rattus norvegicus, UniProt P60042)
[14] = target: 5-hydroxytryptamine receptor 2C (Sus scrofa, UniProt K7GSR7)
[15] = target: Alpha-1A adrenergic receptor (Rattus norvegicus, UniProt P43140)
[16] = target: Rat vasopressin-neurophysin (Rattus norvegicus, UniProt Q6LEI5)
[17] = target: Glutamate receptor ionotropic, NMDA 1 (Rattus norvegicus, UniProt P35439)
B1 bradykinin receptor = B1 bradykinin receptor (Rattus norvegicus, UniProt P97583)
[18] = target: Beta-1 adrenergic receptor (Rattus norvegicus, UniProt P18090)
Beta-1 adrenergic receptor, sequence (P18090 whole entry): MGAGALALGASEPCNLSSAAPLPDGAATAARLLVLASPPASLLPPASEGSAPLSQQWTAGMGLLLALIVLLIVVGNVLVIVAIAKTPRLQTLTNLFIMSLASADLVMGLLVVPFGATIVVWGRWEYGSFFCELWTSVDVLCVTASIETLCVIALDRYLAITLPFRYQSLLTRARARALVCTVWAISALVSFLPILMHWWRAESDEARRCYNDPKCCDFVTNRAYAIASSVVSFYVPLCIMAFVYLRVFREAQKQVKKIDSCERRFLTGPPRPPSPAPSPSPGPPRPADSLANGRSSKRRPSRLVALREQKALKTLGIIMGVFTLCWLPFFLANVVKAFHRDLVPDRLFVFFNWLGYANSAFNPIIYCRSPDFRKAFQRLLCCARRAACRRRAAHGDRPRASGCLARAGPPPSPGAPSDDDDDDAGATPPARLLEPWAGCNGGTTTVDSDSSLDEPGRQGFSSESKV

[19] = target: Muscarinic acetylcholine receptor M3 (Rattus norvegicus, UniProt P08483)
Muscarinic acetylcholine receptor M3, sequence (P08483 whole entry): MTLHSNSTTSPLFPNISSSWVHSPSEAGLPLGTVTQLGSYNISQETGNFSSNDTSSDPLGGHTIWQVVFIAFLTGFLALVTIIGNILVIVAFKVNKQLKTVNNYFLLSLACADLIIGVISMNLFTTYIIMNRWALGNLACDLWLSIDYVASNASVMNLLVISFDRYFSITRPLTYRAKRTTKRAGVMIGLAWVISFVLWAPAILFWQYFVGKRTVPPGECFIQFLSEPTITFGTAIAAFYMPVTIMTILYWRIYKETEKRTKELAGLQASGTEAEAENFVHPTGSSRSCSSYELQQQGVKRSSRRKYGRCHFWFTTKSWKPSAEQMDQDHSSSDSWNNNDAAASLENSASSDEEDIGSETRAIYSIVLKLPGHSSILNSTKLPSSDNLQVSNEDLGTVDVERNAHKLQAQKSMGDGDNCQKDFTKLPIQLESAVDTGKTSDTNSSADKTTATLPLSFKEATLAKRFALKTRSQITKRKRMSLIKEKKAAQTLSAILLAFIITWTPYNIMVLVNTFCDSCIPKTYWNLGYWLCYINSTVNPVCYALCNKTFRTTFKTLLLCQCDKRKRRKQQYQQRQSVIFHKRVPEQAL

[20] = target: Nicotinic acetylcholine receptor (Rattus leucopus, UniProt Q62594)
VIP peptides = VIP peptides (Rattus norvegicus, UniProt P01283)

For `Cn1cc(C(=O)OCC2CCN(CCNS(C)(=O)=O)CC2)c2ccccc21` [GR 113808], the Ki (Pro-neuropeptide Y) was > 10 µM, the Ki [1] was 6.31 µM and the Ki [2] was > 10 µM. For the same compound, the Ki (D(2) dopamine receptor) was > 10 µM, the Ki [3] was > 10 µM and the Ki [4] was > 10 µM. The Ki [5] was > 10 µM, the Ki [6] was > 10 µM and the Ki (Histamine H1 receptor) was > 10 µM. For the same compound, the Ki (Substance-P receptor) was > 10 µM, the Ki (Hrh3 protein) was > 10 µM and the Ki [7] was 1 µM. The Ki (Vasopressin V2 receptor) was > 10 µM, the Ki (Adenosine receptor A2a) was > 10 µM and the Ki (Mu-type opioid receptor) was > 10 µM. For the same compound, the Ki (Adenosine receptor A1) was > 10 µM, the Ki [8] was > 10 µM and the Ki [9] was > 10 µM. For the same compound, the Ki [10] was > 10 µM, the Ki (D(1A) dopamine receptor) was > 10 µM and the Ki (Substance-K receptor) was > 10 µM. The Ki [11] was > 10 µM, the Ki (Neuromedin-K receptor) was > 10 µM and the Ki [12] was > 10 µM. The Ki [13] was > 10 µM, the Ki (Galanin peptides) was > 10 µM and the Ki (Somatostatin) was > 10 µM. The Ki [14] was > 10 µM, the Ki [15] was > 10 µM and the Ki [16] was > 10 µM. For the same compound, the Ki [17] was > 10 µM, the Ki (B1 bradykinin receptor) was > 10 µM and the Ki [18] was 7.94 µM. For the same compound, the Ki [19] was > 10 µM, the Ki [20] was > 10 µM and the Ki (VIP peptides) was > 10 µM.
